From patent US7307102B2, “Method of preventing or treating estrogen-dependent diseases and disorders” (Duke University, priority 1997, dated 2007)

Columns and labels:
[1] = biological target: T1, wild-type human estrogen receptor (ERwt) (Homo sapiens, UniProt P03372); experiment: C3 promoter-luciferase cotransfection assay in HepG2 cells, ERwt; format: cell-based
T1 construct: expressed in transfected cells; host or cells: HepG2
T1 sequence (P03372 1-595): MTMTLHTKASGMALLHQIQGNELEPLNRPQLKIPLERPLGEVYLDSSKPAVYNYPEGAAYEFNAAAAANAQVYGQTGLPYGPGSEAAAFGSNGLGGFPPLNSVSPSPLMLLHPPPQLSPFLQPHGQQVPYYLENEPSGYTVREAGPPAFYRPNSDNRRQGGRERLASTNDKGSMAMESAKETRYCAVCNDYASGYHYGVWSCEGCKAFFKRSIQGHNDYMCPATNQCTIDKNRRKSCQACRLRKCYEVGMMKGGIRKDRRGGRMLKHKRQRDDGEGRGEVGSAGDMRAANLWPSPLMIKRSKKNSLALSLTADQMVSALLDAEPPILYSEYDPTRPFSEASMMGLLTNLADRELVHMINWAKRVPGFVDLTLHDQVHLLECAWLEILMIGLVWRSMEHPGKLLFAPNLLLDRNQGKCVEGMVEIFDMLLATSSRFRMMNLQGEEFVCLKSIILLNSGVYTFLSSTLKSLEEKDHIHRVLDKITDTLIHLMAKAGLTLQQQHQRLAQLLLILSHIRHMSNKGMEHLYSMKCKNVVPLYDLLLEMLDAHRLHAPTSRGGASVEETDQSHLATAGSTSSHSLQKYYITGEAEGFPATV
Source text: FIGS. 1A and 1B. […] The human C3 promoter (−1807 to +58) fused to the firefly luciferase reporter gene was transfected along with an expression plasmid containing (FIG. 1A) the wild-type human estrogen receptor (ERwt), or (FIG. 1B) a mutated ER in which the AF-2 function had been disrupted (ER-TAFl) into HepG2 cells and tested for transcriptional activation in the presence of increasing concentrations of ER-modulator as indicated. Transfections were normalized for efficiency and cell number by cotransfecting an expression plasmid containing β-galactosidase. The normalized response was obtained by dividing light units by the activity of β-galactosidase as measured in an enzymatic assay. Triplicate transfections were performed. The data shown are representative of multiple experiments performed under similar conditions.
FIGS. 2A-2C. […] FIG. 2A. […] FIG. 2B. […] FIG. 2C. […] Transfections were normalized for efficiency and cell number by cotransfecting an expression plasmid containing β-galactosidase. The normalized response was obtained by dividing light units by the activity of β-galactosidase as measured in an enzymatic assay. Representative assays are shown in which triplicate transfections were performed. Error bars represent the standard error of the mean (SEM).
HepG2 cells were maintained in Modified Eagles Medium (MEM) (Life Technologies, Grand Island, N.Y.) plus 10% Fetal Calf Serum (FCS) (Life Technologies). Cells were plated in 24 well plates (coated with gelatin) 24 hours prior to transfection. DNA was introduced into the cells using Lipofectin (Life Technologies). Briefly, triplicate transfections were performed using 3 μg of total DNA. For standard transfections, 500 ng of pCMV-β-Gal (normalization vector), 1500 ng reporter (variable) and 1000 ng receptor (pRST7-hER (Dana et al, Mol. Endocrinol. 8:1193-1207 (1994)) were used for each triplicate. Incubation of the cells with Lipofectin proceeded for 3 hrs, at which time media was removed, cells were washed with PBS and then induced with the appropriate hormone diluted in phenol red-free media containing 10% charcoal stripped CS (Cyclone Inc.). Incubation with hormone continued for 48 hrs, after which cells were lysed and assayed for luciferase and β-galactosidase activity as previously described (Norris et al, JBC 270:22777-22782 (1995)).
A series of in vitro screens have been developed that permit the classification of ER-modulators into four mechanistically distinct groups (Tzukerman et al, Mol. Endocrinol. 8:21-30 (1994)). […] Using these assays, it has been possible to derive “fingerprints” of known ER-modulators (McDonnell et al, Mol. Endocrinol. 9:659-669 (1995)).
Subsequently, the transfected cells were assayed for luceriferase and β-galactosidase activity. Each data point in this experiment represents the average of triplicate determinations of the transcriptional activity under given experimental conditions.

[2] = test system: MCF-7 breast cancer tumors; experiment: Dose response study, MCF-7 breast cancer tumors in nude mice (Example 5); format: in vivo, mouse; conditions: after 8 weeks, 0.6 mg and 1.0 mg vs 1.0 mg tamoxifen, FIG. 10
Experimental: 10 OVX donor mice were injected with 5 million MCF-7 cells. The resulting tumors were transplanted to recipient mice. All animals were given slow release estradiol pellets. […] Tumors were measured daily with calipers, and the area calculated as follows: Area=½×w/2×π.

## CC/C(=C(\c1ccccc1)c1ccc(/C=C/C(=O)O)cc1)c1ccccc1 [GW5638]
[1]; C3 promoter, co-addition with ICI182,780, FIG. 2C
  reversal of the inverse agonist activity of ICI182,780: partially reversed
[1]; ERwt, 10^−8M 17-β-estradiol or tamoxifen, FIG. 2A
  inhibition of the agonist activity manifested by tamoxifen or estradiol: inhibited
[1]; ERwt, compound alone, FIG. 1A/2A
  agonist / inverse agonist activity on the C3 promoter: do not demonstrate any agonist or antagonist activity
[2]
  tumor growth compared with tamoxifen: indistinguishable from the 1.0 mg tamoxifen
